# Measured values published in patent US20050074867A1, “Preservation of competent cells at ambient temperatures” (priority 2001, published 2005).
# Where “and” joins values, the source holds several entries; their conditions need not be identical. Equal entries are not always repeated.
# Tests used:
# Format in all cases: cell-based
# [1] = tested on: Escherichia coli ATCC strain MM294 cells; assay: Electroporation of E. coli MM294 cells with pUC18 (survival and efficiency); settings: cells loaded with 10% MAG, preserved (dried); average of three independent experiments
# Procedure: (§1) (2) Electroporation of fresh E. coli electrocompetent cells: Two aliquots of the concentrated cells (50 μl each) were transferred into pre-chilled Eppendorf tubes (1.5 ml) and 2 μl of pUC18 plasmid DNA (approx. 300 ng/μl) were added to the tubes. The [cells+DNA] mixtures were incubated on ice for 5 minutes and transferred into pre-chilled cuvettes for electroporation. The cells were electroporated by using a BTX T-100 electroporator, at 625 or at 800 volts (V) in BTX cuvettes (0.1 cm gap, P/N 610 Disposable Cuvettes) with a time constant “r” equal 5 msec. Under the pulse conditions described above, the cells were subjected to an electrical field “E” equal to 6.25 kV/cm or 8.0 kV/cm.
# (§2) Immediately after the pulse, the cells were transferred into small glass tubes (10×100 mm) with 0.5 ml of “outgrowth medium” (L-broth+20% sucrose+10 mM CaCl2). The electroporated bacteria were incubated at 37° C. with moderate shaking (150 rpm) for 60 minutes. When the 60 minutes period elapsed, the cells were diluted in “outgrowth medium” and duplicate samples were spread plated on L-agar plates with no antibiotic (to determine electroporation survival) and on L-agar plates with 50 μg/ml or 100 μg/ml of ampicillin (selective marker on pUC18 plasmid; to determine electroporation efficiency). The plates were incubated overnight at 37° C. and the colonies were counted the next day.
# (§3) (6) Electroporation of dried (preserved) E. coli cells: One or two 50 μl aliquots were removed from each rehydrated vial and transferred to pre-chilled Eppendorf tubes. The cells were mixed with pUC18 plasmid DNA (300 ng/μl) and electroporated using the conditions described previously for the electroporation of fresh electrocompetent cells.
# (§4) Electroporation survival was calculated as the number of viable cells recovered after electrical pulse per total number of electroportated cells. Electroporation efficiency was calculated as the number of transformants (cells which received pUC18 plasmid DNA) per number of cells recovered after electroporation (electroporation survival). When applicable, the electroporation efficiency was also expressed as number of transformants per 1 μg of pUC18 DNA (Cfu/μg).
# In this experiment, the cells were washed twice in ice-cold 20% sucrose and concentrated 100-fold after the second wash. Additionally, four samples were prepared (A, B, C, and D). […] Additional solution consisting of 22.5% 4:1 sucrose:MAG was prepared and evaluated for preservation of the cells (sample D). […] Electroporation survival and efficiencies in samples rehydrated with solutions containing different amounts of sucrose were determined. […] Electroporation survival and efficiencies were determined and compared.
# [2] = tested on: commercial electrocompetent E. coli cells; assay: Preservation yield and stability of commercial electrocompetent E. coli cells
# Procedure: (4) Preservation of electrocompetent E. coli cells: The cells (resuspended in PBS buffer or on 20% sucrose) were mixed with an equal mass of preservation solution consisting of 45% 2:1 sucrose:raffinose or 45% 4:1 sucrose:MAG on ice. Altematively, the cell pellets were resuspended directly in 22.5% sucrose:raffinose or 22.5% 4:1 sucrose:MAG. The 0.5 g aliquots were distributed in 5 ml glass serum vials or 0.2 g aliquots were distributed in 1.2 ml glass serum vials. To determine the survival in preservation solution before drying, cell-containing mixtures were diluted in PBS buffer containing 20% sucrose and appropriate dilutions were spread plated in duplicate on L-agar plates.
# The samples were dried by foam formation. The mixtures were foamed at 0° C. and kept at that temperature until foam formation occurred. After foam was well formed, shelf temperature was increased to 20° C. and drying continued overnight (at least 12 hours).
# When applicable, electrocompetent cells were frozen in the following manner. The cell suspension (100 μl) was mixed with 10% DMSO (10 μl) and slowly frozen at −80° C.
# (5) Assaying the preserved E. coli cells: Dried samples were rehydrated at room temperature. 1 ml of rehydration solution (20% sucrose) was added to the 5 ml vials and 0.2 ml was added to the 1.2 ml vials. For the determination of preservation survival, rehydrated cells were diluted and spread plated in duplicate on L-agar plates. Plates were incubated at 37° C. overnight and colonies were counted the following day.
# In this example, commercial electrocompetent E. coli cells, in the form of a bacterial pellet, were preserved by the foam formation process. The cells were concentrated 100-fold and preserved as described previously. To increase desiccation tolerance and enhance preservation survival. One aliquot of the cells were loaded in vitro with 10% MAG. The preserved cells were stored at 4° C. In addition to preservation by foam formation, the cells were preserved by slow freezing (with 10% DMSO) at −80° C.
# [3] = tested on: commercial electrocompetent E. coli cells; assay: Electroporation of preserved commercial electrocompetent E. coli cells; settings: loaded with 10% MAG, transformed immediately after drying
# Procedure: as §1, §2, §3, §4
# Preserved commercial cells (vitrified and frozen) were electroporated as described previously. Electroporation survival and electroporation efficiency in the preserved cells were determined and compared to the same parameters in the fresh cells (Table 5).
# [4] = tested on: logarithmic E. coli cells; assay: Preservation survival and stability of logarithmic E. coli cells loaded in vitro before foam drying; settings: mid-logarithmic cells loaded with 0.1% at 37° C. for 30 minutes
# [5] = Frozen cells 72 hours at −80° C., foam formation-preserved cells (loaded with 10% MAG) dried overnight
# [6] = foam-preserved cells stored at 4° C., frozen cells at −80° C.
smiles,measurement,setting,value
"COC1OC(CO)C(O)C(O)C1O (centres unmarked) [MAG, a-methyl-glucoside]",Electroporation Efficiency 10^−3%,[1],5.6 10^−3%
same,Electroporation Efficiency Cfu/ml,[1],1.7 × 10^5 Cfu/ml
same,Electroporation Survival (%),[1],28.6%
same,Electroporation Survival Cfu/ml,[1],3.0 × 10^9 Cfu/ml
same,Preservation Yield Cfu/ml,[2]; [5],8.8 × 10^9 +/− 3.9 × 10^8 Cfu/ml
same,Preservation yield %,[2]; [5],63.6% and 63.6 +/− 2.8%
same,Stability (12 days) %,[2]; [6],68.5% and 68.5 +/− 0.8%
same,Stability (12 days) Cfu/ml,[2]; [6],9.5 × 10^9 +/− 1.1 × 10^8 Cfu/ml
same,Electroporation Efficiency 10^−3%,[3],6.1 +/− 5.5 10^−3%
same,Electroporation Efficiency (Cfu/µg DNA),[3],1.6 × 10^4 +/− 1.8 × 10^2 Cfu/µg DNA
same,Electroporation Efficiency Cfu/ml,[3],1.9 × 10^5 +/− 1.7 × 10^5 Cfu/ml
same,Electroporation Survival (%),[3],35.7 +/− 4.7%
same,Electroporation Survival Cfu/ml,[3]; cell density 1/10 of fresh concentrates,3.2 × 10^9 +/− 4.2 × 10^8 Cfu/ml
same,survived drying,[4],9%
